Assay results reported in ChEMBL document CHEMBL5724696, “Autophagy assay results for EUbOPEN Chemogenomics Library” (2024).
Values joined by “and” are separate entries in the source; they are usually repeats but may differ in a detail not shown here. Identical values can stand only once.

Assays:
Type in all cases: functional, Homo sapiens
TERT-RPE1 = assay: (§1) Here: values are normalized to the negative (DMSO; defined as 0% autophagy induction) and positive (250nM Torin1; mTOR inhibitor; defined as maximal inducer of autophagy = 100%) control compounds and represented as % of autophagy induction. […] The impact of autophagy induction on cells is complex and depends on the affected target. As such, the magnitude of a phenotype may not be equally mirrored in the %-value of autophagy induction and vice versa. The dynamics of the induction may indicate the mode of activation: e.g. activation via phosphorylation or a signaling cascade may occur fast, while activation via transcription factors may take considerably longer. […] Of note, treatment concentrations may be sub-optimal for specific compounds, leading to false negative annotations.; settings: Culturing Media DMEM/F12 (1:1), 1 % Penicillin/Streptomycin, 10% Fetal bovin serum Add-On: No, Screening Media Control DMEM/F12 (1:1), Screening Media Samples DMEM/F12 (1:1)
U2OS [1] = assay: as §1; settings: Culturing Media DMEM, 1 % Penicillin/Streptomycin, 10% Fetal bovin serum Add-On: No, Screening Media Control DMEM, Screening Media Samples DMEM
U2OS [2] = assay: as §1; settings: Culturing Media DMEM, 1 % Penicillin/Streptomycin, 10% Fetal bovin serum Add-On: No, Screening Media Control DMEM, Screening Media Samples DMEM; remark: listed apart in the source
[3] = Compound Concentration 0.5 uM, Timepoint 12 hours
[4] = Compound Concentration 0.5 uM, Timepoint 24 hours
[5] = Compound Concentration 0.5 uM, Timepoint 36 hours
[6] = Compound Concentration 0.5 uM, Timepoint 60 hours
[7] = Compound Concentration 2 uM, Timepoint 12 hours
[8] = Compound Concentration 2 uM, Timepoint 24 hours
[9] = Compound Concentration 2 uM, Timepoint 36 hours
[10] = Compound Concentration 2 uM, Timepoint 60 hours
[11] = Compound Concentration 10 uM, Timepoint 12 hours
[12] = Compound Concentration 10 uM, Timepoint 24 hours
[13] = Compound Concentration 10 uM, Timepoint 36 hours
[14] = Compound Concentration 10 uM, Timepoint 60 hours

Row | Structure (SMILES) | autophagy induction (U2OS [1]; [3]) [%] | autophagy induction (U2OS [1]; [4]) [%] | autophagy induction (U2OS [1]; [5]) [%] | autophagy induction (U2OS [1]; [6]) [%] | autophagy induction (U2OS [1]; [7]) [%] | autophagy induction (U2OS [1]; [8]) [%] | autophagy induction (U2OS [1]; [9]) [%] | autophagy induction (U2OS [1]; [10]) [%] | autophagy induction (U2OS [1]; [11]) [%] | autophagy induction (U2OS [1]; [12]) [%] | autophagy induction (U2OS [1]; [13]) [%] | autophagy induction (U2OS [1]; [14]) [%] | autophagy induction (U2OS [2]; [3]) [%] | autophagy induction (U2OS [2]; [4]) [%] | autophagy induction (U2OS [2]; [5]) [%] | autophagy induction (U2OS [2]; [6]) [%] | autophagy induction (U2OS [2]; [7]) [%] | autophagy induction (U2OS [2]; [8]) [%] | autophagy induction (U2OS [2]; [9]) [%] | autophagy induction (U2OS [2]; [10]) [%] | also measured
1 | CC(C)NC(=O)c1ccc(C#Cc2ccncc2)cn1 | -9.113 | -5.012 | -3.818 | -1.861 | -10.7877 | -3.358 | -2.622 | -1.746 | -0.7026 | -0.9948 | -1.134 | -0.8185 | 0.5322 | 0.2252 | -0.5555 | 0.1744 | 1.689 | 1.76 | 0.3174 | -4.895 | autophagy induction (TERT-RPE1; [3]): -8.654%; autophagy induction (TERT-RPE1; [4]): -9.257%; autophagy induction (TERT-RPE1; [5]): -14.0532%; autophagy induction (TERT-RPE1; [6]): -16.4507%; autophagy induction (TERT-RPE1; [7]): -4.036%; autophagy induction (TERT-RPE1; [8]): -5.1239%; autophagy induction (TERT-RPE1; [9]): -6.815%; autophagy induction (TERT-RPE1; [10]): -8.286%; autophagy induction (TERT-RPE1; [11]): 1.565%; autophagy induction (TERT-RPE1; [12]): 2.778%; autophagy induction (TERT-RPE1; [13]): 9.008%; autophagy induction (TERT-RPE1; [14]): 16.9694%; autophagy induction (U2OS [2]; [11]): -23.095%; autophagy induction (U2OS [2]; [12]): -7.509%; autophagy induction (U2OS [2]; [13]): -0.1897%; autophagy induction (U2OS [2]; [14]): 10.5553%
2 | CN1CCCC(n2nc(Cc3ccc(Cl)cc3)c3ccccc3c2=O)CC1.Cl (stereo unspecified) [AZELASTINE HYDROCHLORIDE] | -1.752 | -3.995 | 606.483 | -3.291 | -6.53 | -3.506 | -60.9405 | -3.3303 | -10.1026 | -0.8464 | -60.027 | -3.2037 | 28.6217 | 20.8368 | 11.7893 | 4.08 | -10.9736 | -5.743 | -1.742 | -7.358 | autophagy induction (TERT-RPE1; Compound Concentration 0.5 uM, Timepoint 12 hours, 12 h, 0.5 µM): -4.87% and -1.0131%; autophagy induction (TERT-RPE1; Compound Concentration 0.5 uM, Timepoint 24 hours, 24 h, 0.5 µM): -4.869% and -0.0662%; autophagy induction (TERT-RPE1; Compound Concentration 0.5 uM, Timepoint 36 hours, 36 h, 0.5 µM): -3.53% and 2.514%; autophagy induction (TERT-RPE1; Compound Concentration 0.5 uM, Timepoint 60 hours, 60 h, 0.5 µM): -2.083% and 5.845%; autophagy induction (TERT-RPE1; Compound Concentration 2 uM, Timepoint 12 hours, 12 h, 2 µM): 2.2259% and 11.1438%; autophagy induction (TERT-RPE1; Compound Concentration 2 uM, Timepoint 24 hours, 24 h, 2 µM): 1.534% and 9.267%; autophagy induction (TERT-RPE1; Compound Concentration 2 uM, Timepoint 36 hours, 36 h, 2 µM): 3.816% and 8.147%; autophagy induction (TERT-RPE1; Compound Concentration 10 uM, Timepoint 12 hours, 12 h, 10 µM): 7.066% and 3.619%; autophagy induction (TERT-RPE1; Compound Concentration 10 uM, Timepoint 24 hours, 24 h, 10 µM): 11.8407% and 4.087%; autophagy induction (TERT-RPE1; Compound Concentration 10 uM, Timepoint 36 hours, 36 h, 10 µM): 14.8577% and 6.608%; autophagy induction (TERT-RPE1; Compound Concentration 10 uM, Timepoint 60 hours, 60 h, 10 µM): 14.3498% and 13.0687%; autophagy induction (U2OS [2]; [11]): 1.941%; autophagy induction (U2OS [2]; [12]): 10.8687%; autophagy induction (U2OS [2]; [13]): 9.578%; autophagy induction (U2OS [2]; [14]): 17.8748%
